Test results published in the supplement of paper PMC10307832.

What was measured:
Experiment in all cases: relative viability (nuclei count vs DMSO), 5 days (fraction); higher = more cells survive
Selumetinib + Crizotinib = compound: Cn1cnc2c(F)c(Nc3ccc(Br)cc3Cl)c(C(=O)NOCCO)cc21 [Selumetinib] + C[C@@H](Oc1cc(-c2cnn(C3CCNCC3)c2)cnc1N)c1c(Cl)ccc(F)c1Cl [Crizotinib] (partner 1 µM)
Summary of the method: (§1)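 Dosing by pin tool came one day after lung cancer cell lines were seeded in 1536-well plates, using either one drug or a fixed anchor-drug dose plus five library-drug doses (not always all listed) in √10 steps. After 5 days, nuclei were counted on 4× images. Relative viability is treated-well nuclei count divided by vehicle-well nuclei count, and values are medians of duplicate plates.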

Venetoclax + Linsitinib = compound: CC1(C)CCC(CN2CCN(c3ccc(C(=O)NS(=O)(=O)c4ccc(NCC5CCOCC5)c([N+](=O)[O-])c4)c(Oc4cnc5[nH]ccc5c4)c3)CC2)=C(c2ccc(Cl)cc2)C1 [Venetoclax] + C[C@]1(O)C[C@@H](c2nc(-c3ccc4ccc(-c5ccccc5)nc4c3)c3c(N)nccn32)C1 [Linsitinib] (partner 1 µM)
Summary of the method: as §1

Selumetinib + Pemetrexed = compound: Cn1cnc2c(F)c(Nc3ccc(Br)cc3Cl)c(C(=O)NOCCO)cc21 [Selumetinib] + Nc1nc2[nH]cc(CCc3ccc(C(=O)N[C@@H](CCC(=O)O)C(=O)O)cc3)c2c(=O)[nH]1 [Pemetrexed] (partner 0.2 µM)
Summary of the method: as §1

Selumetinib + Olaparib = compound: Cn1cnc2c(F)c(Nc3ccc(Br)cc3Cl)c(C(=O)NOCCO)cc21 [Selumetinib] + O=C(c1cc(Cc2n[nH]c(=O)c3ccccc23)ccc1F)N1CCN(C(=O)C2CC2)CC1 [Olaparib] (partner 8 µM)
Summary of the method: as §1

Row | Cell Line | relative viability (Selumetinib + Crizotinib; first compound 0.02 µM) | relative viability (Selumetinib + Crizotinib; first compound 0.06325 µM) | relative viability (Selumetinib + Crizotinib; first compound 0.2 µM) | relative viability (Selumetinib + Crizotinib; first compound 0.6325 µM) | relative viability (Venetoclax + Linsitinib; first compound 0.01 µM) | relative viability (Venetoclax + Linsitinib; first compound 0.03162 µM) | relative viability (Venetoclax + Linsitinib; first compound 0.1 µM) | relative viability (Venetoclax + Linsitinib; first compound 0.3162 µM) | relative viability (Venetoclax + Linsitinib; first compound 1 µM) | relative viability (Selumetinib + Pemetrexed; first compound 0.02 µM) | relative viability (Selumetinib + Pemetrexed; first compound 0.06325 µM) | relative viability (Selumetinib + Pemetrexed; first compound 0.2 µM) | relative viability (Selumetinib + Pemetrexed; first compound 0.6325 µM) | relative viability (Selumetinib + Olaparib; first compound 0.02 µM) | relative viability (Selumetinib + Olaparib; first compound 0.06325 µM) | relative viability (Selumetinib + Olaparib; first compound 0.2 µM) | relative viability (Selumetinib + Olaparib; first compound 0.6325 µM)
1 | NCI-H2087 | 0.989 | 0.706 | 0.665 | 0.434 | 1.01 | 1.13 | 1.01 | 0.983 | 0.945 | 0.677 | 0.649 | 0.591 | 0.361 | 0.527 | 0.38 | 0.322 | 0.243
2 | COR-L 105 | 0.855 | 0.689 | 0.714 | 0.635 | 0.934 | 0.943 | 0.834 | 0.81 | 0.871 | 1.11 | 1.02 | 0.841 | 0.582 | 0.73 | 0.727 | 0.687 | 0.582
3 | SW 1573 | 0.762 | 0.683 | 0.639 | 0.597 | 0.93 | 0.766 | 0.916 | 0.835 | 0.891 | 0.82 | 0.725 | 0.857 | 0.769 | 0.479 | 0.403 | 0.368 | 0.437
4 | NCI-H1355 | 1.06 | 1.1 | 0.796 | 0.681 | 0.812 | 0.814 | 0.778 | 0.792 | 0.753 | 1.01 | 0.881 | 0.898 | 0.788 | 0.696 | 0.614 | 0.616 | 0.534
5 | RERF-LC-KJ | 0.844 | 0.842 | 0.788 | 0.77 | 0.792 | 0.899 | 0.904 | 0.883 | 0.85 | 0.429 | 0.459 | 0.492 | 0.472 | 0.878 | 0.896 | 0.889 | 0.892
6 | NCI-H1734 | 0.775 | 0.52 | 0.591 | 0.574 | 0.894 | 0.911 | 0.803 | 0.855 | 0.865 | 0.387 | 0.373 | 0.404 | 0.418 | 0.604 | 0.391 | 0.557 | 0.56
7 | NCI-H2126 | 1.01 | 1 | 0.913 | 0.887 | 0.792 | 0.733 | 0.695 | 0.741 | 0.689 | 0.627 | 0.612 | 0.684 | 0.568 | 0.893 | 0.833 | 0.813 | 0.742
